Drawing on ChEMBL document CHEMBL4376871, “Synthesis and anti-cancer activity studies of dammarane-type triterpenoid derivatives” (Eur J Med Chem, 2020), this text covers IC50 for 21 molecules.

Assay [1] is described as follows: Cytotoxicity against human IOSE-144 cells incubated for 48 hrs and measured after 4 hrs by MTT assay. The format is cell-based. (Formazan colour is commonly taken as a measure of viable cells.)
For a further assay, the system named is MGC-803. In words: Antiproliferative activity against human MGC803 cells incubated for 48 hrs and measured after 4 hrs by MTT assay. The format is functional, cell-based.
Another assay concerns MCF7. Put plainly: Antiproliferative activity against human MCF7 cells incubated for 48 hrs and measured after 4 hrs by MTT assay. The class given is functional, cell-based.
For a further assay, the system named is PC-3. Put plainly: Antiproliferative activity against human PC3 cells incubated for 48 hrs and measured after 4 hrs by MTT assay. The class given is functional, cell-based.
A further assay relates to SGC-7901. In words: Antiproliferative activity against human SGC7901 cells incubated for 48 hrs and measured after 4 hrs by MTT assay. The format is functional, cell-based.
A further assay concerns A549. Put plainly: Antiproliferative activity against human A549 cells incubated for 48 hrs and measured after 4 hrs by MTT assay. The class given is functional, cell-based.

Molecules are shown by their SMILES. Bounds are passed on as bounds.

`CC(C)(O)CCC[C@@](C)(O)[C@H]1CC[C@]2(C)[C@@H]1[C@H](O)C[C@@H]1[C@@]3(C)C/C(=C\c4ccc(C(F)(F)F)cc4)C(=O)C(C)(C)[C@@H]3CC[C@]12C`: the IC50 (usually the concentration that gives 50% inhibition) is greater than 100 µM in assay [1]; 26.2 µM in the assay with MGC-803; 15.5 µM with MCF7; 36.8 µM in the assay with PC-3; 29.1 µM with SGC-7901; 48.4 µM with A549.
For the molecule `CC(C)(O)CCC[C@@](C)(O)[C@H]1CC[C@]2(C)[C@@H]1[C@H](O)C[C@@H]1[C@@]3(C)CC[C@H](NC(=O)C4CCCN(C(=O)OC(C)(C)C)C4)C(C)(C)[C@@H]3CC[C@]12C` (stereo partly specified), the IC50 was greater than 100 µM in assay [1]; 16.8 µM with MGC-803; 21.2 µM with MCF7; 23.1 µM in the assay on PC-3; 18.1 µM in the assay on SGC-7901; 23.5 µM with A549.
`CC(C)(O)CCC[C@@](C)(O)[C@H]1CC[C@]2(C)[C@@H]1[C@H](O)C[C@@H]1[C@@]3(C)CC[C@H](OC(=O)C4CCCN(C(=O)OC(C)(C)C)C4)C(C)(C)[C@@H]3CC[C@]12C` (stereo partly specified): the IC50 is greater than 100 µM in assay [1]; 22.2 µM in the assay with MGC-803; 26.7 µM in the assay on MCF7; 23.6 µM in the assay with PC-3; 22.3 µM with SGC-7901; 22.2 µM in the assay on A549.
In the case of `CC(C)(O)CCC[C@@](C)(O)[C@H]1CC[C@]2(C)[C@@H]1[C@H](O)C[C@@H]1[C@@]3(C)C/C(=C\c4ccc(Br)cc4)[C@H](O)C(C)(C)[C@@H]3CC[C@]12C`, the IC50 in assay [1] is greater than 100 µM; in the assay on MGC-803, 26.1 µM; in the assay with MCF7, greater than 100 µM; with PC-3, 16.5 µM; with SGC-7901, greater than 100 µM; with A549 it was 38.6 µM.
Turning to `CC(C)(O)CCC[C@@](C)(O)[C@H]1CC[C@]2(C)[C@@H]1[C@H](O)C[C@@H]1[C@@]3(C)C/C(=C\c4ccc(F)cc4F)[C@H](O)C(C)(C)[C@@H]3CC[C@]12C`, the IC50 in assay [1] was greater than 100 µM; in the assay with MGC-803, 12.6 µM; in the assay on MCF7, 13.2 µM; with PC-3, 24.4 µM; in the assay on SGC-7901, 30.4 µM; with A549 it was 21.4 µM.
Turning to `CC(C)(O)CCC[C@@](C)(O)[C@H]1CC[C@]2(C)[C@@H]1[C@H](O)C[C@@H]1[C@@]3(C)C/C(=C\c4ccc([N+](=O)[O-])cc4)[C@H](O)C(C)(C)[C@@H]3CC[C@]12C`, the IC50 in assay [1] was greater than 100 µM; in the assay on MGC-803, 23.2 µM; in the assay with MCF7 it was 49.4 µM; with PC-3, 58.1 µM; with SGC-7901 it was 47.2 µM; with A549, 34.2 µM.
In the case of `CC(C)(O)CCC[C@@](C)(O)[C@H]1CC[C@]2(C)[C@@H]1[C@H](O)C[C@@H]1[C@@]3(C)C/C(=C\c4ccc([N+](=O)[O-])cc4)C(=O)C(C)(C)[C@@H]3CC[C@]12C`, the IC50 in assay [1] was greater than 100 µM; in the assay with MGC-803 it was 22.2 µM; with MCF7 it was 22.2 µM; in the assay with PC-3, 30.8 µM; in the assay with SGC-7901, 28.2 µM; in the assay on A549, 19.7 µM.
For `CC(C)(O)CCC[C@@](C)(O)[C@H]1CC[C@]2(C)[C@@H]1[C@H](O)C[C@@H]1[C@@]3(C)C/C(=C\c4ccc(Br)cc4)C(=O)C(C)(C)[C@@H]3CC[C@]12C`, the IC50 in assay [1] was greater than 100 µM; in the assay on MGC-803 it was 13.8 µM; in the assay on MCF7, 8.45 µM; with PC-3, 16.6 µM; in the assay on SGC-7901, 21.4 µM; with A549, 23.1 µM.
As for `CC(C)(O)CCC[C@@](C)(O)[C@H]1CC[C@]2(C)[C@@H]1[C@H](O)C[C@@H]1[C@@]3(C)C/C(=C\c4cccc(Br)c4)C(=O)C(C)(C)[C@@H]3CC[C@]12C`, the IC50 is greater than 100 µM in assay [1]; 13.6 µM in the assay on MGC-803; 12.2 µM in the assay with MCF7; 14.1 µM with PC-3; 20.6 µM in the assay with SGC-7901; 34.7 µM with A549.
Consider `CC(C)(O)CCC[C@@](C)(O)[C@H]1CC[C@]2(C)[C@@H]1[C@H](O)C[C@@H]1[C@@]3(C)C/C(=C\c4cccc(F)c4)[C@H](O)C(C)(C)[C@@H]3CC[C@]12C`, for which the IC50 in assay [1] is greater than 100 µM; in the assay on MGC-803, 56.1 µM; in the assay on MCF7 it was greater than 100 µM; in the assay on PC-3, greater than 100 µM; with SGC-7901, greater than 100 µM; in the assay with A549, greater than 100 µM.
As for `CC(C)(O)CCC[C@@](C)(O)[C@H]1CC[C@]2(C)[C@@H]1[C@H](O)C[C@@H]1[C@@]3(C)C/C(=C\c4cccc(F)c4)C(=O)C(C)(C)[C@@H]3CC[C@]12C`, the IC50 in assay [1] is greater than 100 µM; with MGC-803, 13.3 µM; in the assay on MCF7 it was 14.8 µM; in the assay with PC-3 it was 49.5 µM; in the assay on SGC-7901, 31.8 µM; with A549, 55.6 µM.
With `CC(C)(O)CCC[C@@](C)(O)[C@H]1CC[C@]2(C)[C@@H]1[C@H](O)C[C@@H]1[C@@]3(C)CC[C@H](NC(=O)C4CCCNC4)C(C)(C)[C@@H]3CC[C@]12C` (stereo partly specified), the IC50 is greater than 100 µM in assay [1]; 20.6 µM in the assay with MGC-803; 18.5 µM in the assay on MCF7; 30.8 µM with PC-3; 29.9 µM in the assay with SGC-7901; 11.6 µM in the assay on A549.
Consider `CC(C)(O)CCC[C@@](C)(O)[C@H]1CC[C@]2(C)[C@@H]1[C@H](O)C[C@@H]1[C@@]3(C)CC[C@H](OC(=O)C4CCCNC4)C(C)(C)[C@@H]3CC[C@]12C` (stereo partly specified), for which the IC50 in assay [1] is greater than 100 µM; in the assay with MGC-803, 12.5 µM; in the assay on MCF7, 14 µM; in the assay with PC-3 it was 13.1 µM; in the assay with SGC-7901, 12.1 µM; in the assay on A549 it was 5.44 µM.
Take `CC(C)(O)CCC[C@@](C)(O)[C@H]1CC[C@]2(C)[C@@H]1[C@H](O)C[C@@H]1[C@@]3(C)C/C(=C\c4cccc([N+](=O)[O-])c4)C(=O)C(C)(C)[C@@H]3CC[C@]12C`: the IC50 was greater than 100 µM in assay [1]; 11.3 µM in the assay with MGC-803; 12.7 µM in the assay with MCF7; 14.1 µM in the assay on PC-3; 17.6 µM with SGC-7901; 16.7 µM in the assay on A549.
With `CC(C)(O)CCC[C@@](C)(O)[C@H]1CC[C@]2(C)[C@@H]1[C@H](O)C[C@@H]1[C@@]3(C)CC[C@H](OC(=O)C4CCN(C(=O)OC(C)(C)C)CC4)C(C)(C)[C@@H]3CC[C@]12C`, the IC50 in assay [1] was greater than 100 µM; with MGC-803, 22.2 µM; in the assay on MCF7, 11 µM; with PC-3, 25.8 µM; in the assay on SGC-7901, 18.2 µM; with A549 it was 10.8 µM.
Take `CC(C)(O)CCC[C@@](C)(O)[C@H]1CC[C@]2(C)[C@@H]1[C@H](O)C[C@@H]1[C@@]3(C)C/C(=C\c4cccc(Br)c4)[C@H](O)C(C)(C)[C@@H]3CC[C@]12C`: the IC50 is greater than 100 µM in assay [1]; 18.8 µM in the assay on MGC-803; greater than 100 µM in the assay on MCF7; greater than 100 µM in the assay with PC-3; greater than 100 µM with SGC-7901; greater than 100 µM in the assay on A549.
On to `CC(C)(O)CCC[C@@](C)(O)[C@H]1CC[C@]2(C)[C@@H]1[C@H](O)C[C@@H]1[C@@]3(C)CC[C@H](NC(=O)C4CCN(C(=O)OC(C)(C)C)CC4)C(C)(C)[C@@H]3CC[C@]12C`, for which the IC50 was greater than 100 µM in assay [1]; 11.4 µM in the assay on MGC-803; 89.5 µM in the assay on MCF7; 17.9 µM in the assay with PC-3; 18.8 µM in the assay on SGC-7901; 11.7 µM in the assay on A549.
In the case of `CC(C)(O)CCC[C@@](C)(O)[C@H]1CC[C@]2(C)[C@@H]1[C@H](O)C[C@@H]1[C@@]3(C)C/C(=C\c4ccc(C(F)(F)F)cc4)[C@H](O)C(C)(C)[C@@H]3CC[C@]12C`, the half-maximal inhibitory concentration (IC50) in assay [1] is greater than 100 µM; in the assay on MGC-803, greater than 100 µM; in the assay on MCF7, greater than 100 µM; in the assay on PC-3, greater than 100 µM; in the assay with SGC-7901, greater than 100 µM; with A549, 45.6 µM.
Turning to `CC(C)(O)CCC[C@@](C)(O)[C@H]1CC[C@]2(C)[C@@H]1[C@H](O)C[C@@H]1[C@@]3(C)CC[C@H](N)C(C)(C)[C@@H]3CC[C@]12C`, the IC50 in assay [1] is greater than 100 µM; with MGC-803, 13.8 µM; in the assay with MCF7, 13.3 µM; in the assay on PC-3, 34 µM; in the assay on SGC-7901, 53.1 µM; in the assay on A549 it was 7.68 µM.
For the molecule `CC(C)(O)CCC[C@@](C)(O)[C@H]1CC[C@]2(C)[C@@H]1[C@H](O)C[C@@H]1[C@@]3(C)CC[C@H](NC(=O)C4CCNCC4)C(C)(C)[C@@H]3CC[C@]12C`, the IC50 in assay [1] was greater than 100 µM; with MGC-803, 25.5 µM; in the assay with MCF7, 25.2 µM; in the assay with PC-3, 34.1 µM; in the assay with SGC-7901, 32.4 µM; in the assay on A549 it was 20.3 µM.
For the molecule `CC(C)(O)CCC[C@@](C)(O)[C@H]1CC[C@]2(C)[C@@H]1[C@H](O)C[C@@H]1[C@@]3(C)C/C(=C\c4cccc([N+](=O)[O-])c4)[C@H](O)C(C)(C)[C@@H]3CC[C@]12C`, the IC50 in assay [1] is greater than 100 µM; in the assay on MGC-803 it was greater than 100 µM; with MCF7, greater than 100 µM; in the assay with PC-3, 75.2 µM; in the assay with SGC-7901 it was greater than 100 µM; with A549, 44.9 µM.
